Results reported in PMC10253498 (RSC Advances, 2023).
Entries after “also recorded” stand apart in the source; their conditions may differ. Marks after values point to notes of the source that are not given here.

Assays:
[1] = target: T1, acetyl cholinesterase (AChE) (Homo sapiens, UniProt P22303); experiment: biochemical
[2] = target: T2, monoamine oxidase B (MAO-B, extracted) (Homo sapiens, UniProt P27338); experiment: biochemical
T2 sequence (P27338 1-520): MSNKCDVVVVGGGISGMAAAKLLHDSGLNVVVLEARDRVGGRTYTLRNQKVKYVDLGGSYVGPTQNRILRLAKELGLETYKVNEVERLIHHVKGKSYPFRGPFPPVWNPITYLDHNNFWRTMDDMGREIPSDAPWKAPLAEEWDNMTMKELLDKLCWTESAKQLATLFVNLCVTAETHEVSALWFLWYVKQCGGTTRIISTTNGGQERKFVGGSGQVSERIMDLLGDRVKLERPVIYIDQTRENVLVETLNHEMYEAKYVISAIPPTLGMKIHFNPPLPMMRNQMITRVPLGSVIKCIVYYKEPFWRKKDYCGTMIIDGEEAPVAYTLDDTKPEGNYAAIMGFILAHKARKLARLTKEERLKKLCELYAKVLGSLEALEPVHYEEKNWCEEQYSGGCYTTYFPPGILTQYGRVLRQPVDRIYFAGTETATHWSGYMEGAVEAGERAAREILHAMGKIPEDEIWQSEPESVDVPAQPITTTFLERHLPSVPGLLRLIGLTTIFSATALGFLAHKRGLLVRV
Protocol: (§1) Newly synthesized compounds were tested on monoamine oxidase A and B (extracted). […] Reaction mixture was composed of 100 μL of total assay volume having 30 μL buffer (pH 7.4), 10 μL test compounds, 10 μL of extracted enzyme (MAO-A: 13 μg mL^−1, MAO-B: 15 μg mL^−1), 30 μL of amplex red and 20 μL of substrate (p-tyramine). Initially reaction mixture having buffer + test compound + enzyme was incubated for 15 minutes for MAO-A And MAO-B. After Incubation the amplex red reagent was added followed by addition of substrate p-tyramine. The change in the fluorescence was determined by using fluorescence plate reader: FLUOstar® Omega (BMG Labtech GmbH, orten berg Germany). […] All experiments were performed in triplicate. IC50 values were calculated by non-linear curve fitting program PRISM 5.0 (GraphPad, San Diego, California, USA) where log inhibitor vs. response curve was generated.

[3] = target: butyryl cholinesterase (BChE) (Homo sapiens, UniProt P06276); experiment: Butyryl cholinesterase inhibition assay; type: biochemical; settings: for BChE %age inhibition: test concentration not given
Sequence of butyryl cholinesterase (BChE) (P06276 29-602, species assumed): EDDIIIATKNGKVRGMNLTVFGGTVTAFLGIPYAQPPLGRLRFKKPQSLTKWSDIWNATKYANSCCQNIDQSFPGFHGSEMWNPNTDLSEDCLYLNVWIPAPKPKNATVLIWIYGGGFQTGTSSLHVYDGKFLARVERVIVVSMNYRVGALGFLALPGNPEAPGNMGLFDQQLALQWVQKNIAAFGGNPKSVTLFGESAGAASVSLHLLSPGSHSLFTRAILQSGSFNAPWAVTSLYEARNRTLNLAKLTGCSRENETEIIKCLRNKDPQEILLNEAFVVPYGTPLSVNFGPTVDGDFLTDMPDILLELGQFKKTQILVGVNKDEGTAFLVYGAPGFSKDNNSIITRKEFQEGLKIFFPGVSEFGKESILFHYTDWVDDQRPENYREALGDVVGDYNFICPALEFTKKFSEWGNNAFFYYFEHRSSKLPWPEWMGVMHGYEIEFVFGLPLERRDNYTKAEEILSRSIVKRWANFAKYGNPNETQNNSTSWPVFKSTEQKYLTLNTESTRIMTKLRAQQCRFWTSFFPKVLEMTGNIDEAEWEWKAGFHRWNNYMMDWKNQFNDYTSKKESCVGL

[4] = target: T3, monoamine oxidase A (MAO-A, extracted) (Homo sapiens, UniProt P21397); experiment: biochemical
T3 sequence (P21397 1-527): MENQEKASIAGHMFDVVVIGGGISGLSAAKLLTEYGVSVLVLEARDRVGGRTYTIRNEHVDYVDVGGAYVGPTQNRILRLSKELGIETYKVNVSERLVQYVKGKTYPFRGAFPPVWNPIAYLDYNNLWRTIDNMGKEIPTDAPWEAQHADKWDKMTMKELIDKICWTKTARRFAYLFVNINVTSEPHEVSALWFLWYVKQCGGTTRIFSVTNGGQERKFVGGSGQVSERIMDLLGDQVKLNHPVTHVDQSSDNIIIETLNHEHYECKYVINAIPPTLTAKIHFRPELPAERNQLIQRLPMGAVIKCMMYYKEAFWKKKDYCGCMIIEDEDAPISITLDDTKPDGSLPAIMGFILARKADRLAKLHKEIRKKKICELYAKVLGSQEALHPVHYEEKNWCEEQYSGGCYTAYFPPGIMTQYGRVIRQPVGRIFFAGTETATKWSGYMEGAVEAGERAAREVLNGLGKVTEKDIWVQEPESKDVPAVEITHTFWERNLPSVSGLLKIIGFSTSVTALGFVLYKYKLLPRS
Protocol: as §1

[5] = target: T2, monoamine oxidase B (MAO-B, extracted); settings: for MAO-B %age inhibition: compounds not above 50% inhibition, test concentration not given
[6] = target: T1, acetyl cholinesterase (AChE); settings: for AChE %age inhibition: test concentration not given
[7] = target: T3, monoamine oxidase A (MAO-A, extracted); settings: for MAO-A %age inhibition: compounds not above 50% inhibition, test concentration not given

T1 sequence (P22303 32-614, species assumed): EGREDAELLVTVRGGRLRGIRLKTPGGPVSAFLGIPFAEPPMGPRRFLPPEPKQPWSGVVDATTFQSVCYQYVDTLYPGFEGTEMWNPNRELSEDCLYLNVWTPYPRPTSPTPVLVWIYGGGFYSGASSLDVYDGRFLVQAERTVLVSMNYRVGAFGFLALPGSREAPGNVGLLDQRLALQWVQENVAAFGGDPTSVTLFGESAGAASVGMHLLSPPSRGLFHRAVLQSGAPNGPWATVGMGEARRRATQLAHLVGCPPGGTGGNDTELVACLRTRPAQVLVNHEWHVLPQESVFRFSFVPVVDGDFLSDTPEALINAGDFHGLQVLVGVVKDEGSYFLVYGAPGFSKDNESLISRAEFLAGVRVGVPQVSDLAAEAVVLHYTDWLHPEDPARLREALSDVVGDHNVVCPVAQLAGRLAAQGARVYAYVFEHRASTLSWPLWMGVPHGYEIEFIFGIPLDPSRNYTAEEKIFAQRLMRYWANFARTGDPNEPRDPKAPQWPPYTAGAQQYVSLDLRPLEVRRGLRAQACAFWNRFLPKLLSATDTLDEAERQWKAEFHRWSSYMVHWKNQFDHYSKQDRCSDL

| Compound | IC50 [1] [µM] | IC50 [2] [µM] | BChE %age inhibition [3] [% ^c] | IC50 [4] [µM] | inhibition against MAO-B (in words) [5] | inhibition against AChE (in words) [6] | inhibition against MAO-A (in words) [7] | inhibition against BChE (in words) [3] | MAO-B %age inhibition [5] | AChE %age inhibition [6] [% ^c] | MAO-A %age inhibition [7] |
| --- | --- | --- | --- | --- | --- | --- | --- | --- | --- | --- | --- |
| Cc1ccc(Nc2nnc(-c3cccc(F)c3)o2)c(C)c1 [Compound 4e, N-(2,4-Dimethylphenyl)-5-(3-fluorophenyl)-1,3,4-oxadiazol-2-amine] | 1.96 ± 0.176 | 1.91 ± 0.89 | 10.54 | 1.47 ± 0.45 | strong inhibition | potent inhibition | potent inhibition | – | – | – | – |
| FC(F)(F)c1ccc(-c2nnc(Nc3ccc(Br)cc3)o2)cc1 [Compound 4l, N-(4-Bromophenyl)-5-(4-(trifluoromethyl)phenyl)-1,3,4-oxadiazol-2-amine] | – | – | 26.91 | – | demolished the activity | moderate to weak inhibition; also recorded: demolished the activity | weak inhibition; also recorded: demolished the activity | demolished the activity | 24.86 ^c % | 44.56 | 36.81 ^c % |
| Cc1ccccc1Nc1nnc(-c2ccccc2)o1 [Compound 4n, 5-Phenyl-N-(o-tolyl)-1,3,4-oxadiazol-2-amine] | – | – | 28.87 | – | – | – | weak inhibition | – | 18.47 ^c % | – | 21.07 ^c % |
| Cc1c(F)cccc1-c1nnc(Nc2ccccc2)o1 [Compound 4o, 5-(3-Fluoro-2-methylphenyl)-N-phenyl-1,3,4-oxadiazol-2-amine] | 2.32 ± 0.08 | – | 32.98 | – | – | – | – | – | 22.65 ^c % | – | 29.98 ^c % |
| Cc1ccc(Nc2nnc(-c3ccncc3)o2)c(C)c1 [Compound 4k, N-(2,4-Dimethylphenyl)-5-(pyridin-4-yl)-1,3,4-oxadiazol-2-amine] | – | 1.1 ± 1.16 | 14.67 | 3.46 ± 2.58 | strong inhibition; also recorded: restored its inhibitory effects | moderate to weak inhibition; also recorded: lost its inhibitory effects | potent inhibition | – | – | 39.65 | – |
| Fc1ccccc1Nc1nnc(-c2ccc(C(F)(F)F)cc2)o1 [Compound 4i, N-(2-Fluorophenyl)-5-(4-(trifluoromethyl)phenyl)-1,3,4-oxadiazol-2-amine] | – | – | 21.45 | – | – | potent inhibition; also recorded: moderate to weak inhibition | weak inhibition | – | 32.53 ^c % | 37.12 | 38.11 ^c % |
| N#Cc1cccc(Nc2nnc(-c3ccc(C(F)(F)F)cc3)o2)c1 [Compound 4a, 3-((5-(4-(Trifluoromethyl)phenyl)-1,3,4-oxadiazol-2-yl)amino)benzonitrile] | – | – | 20.54 | – | – | moderate to weak inhibition | weak inhibition | – | 37.06 ^c % | 42.32 | 33.23 ^c % |
| N#Cc1cccc(Nc2nnc(Cc3ccccc3C(F)(F)F)o2)c1 [Compound 4b, 3-((5-(2-(Trifluoromethyl)benzyl)-1,3,4-oxadiazol-2-yl)amino)benzonitrile] | – | – | 23.65 | 2.86 ± 1.51 | – | moderate to weak inhibition | – | – | 35.73 ^c % | 31.34 | – |
| N#Cc1cccc(Nc2nnc(-c3ccncc3)o2)c1 [Compound 4j, 3-((5-(Pyridin-4-yl)-1,3,4-oxadiazol-2-yl)amino)benzonitrile] | 1.56 ± 0.309 | – | 20.55 | 1.02 ± 0.09 | lost its inhibitory effects | potent inhibition | potent inhibition | – | 18.57 ^c % | – | – |
| c1ccc(Nc2nnc(-c3ccncc3)o2)cc1 [Compound 4d, N-Phenyl-5-(pyridin-4-yl)-1,3,4-oxadiazol-2-amine] | – | – | 23.67 | 1.44 ± 0.22 | strong inhibition; also recorded: promising inhibitory effects | – | potent inhibition; also recorded: promising inhibitory effects | – | – | – | – |
| Cc1ccc(F)c(-c2nnc(Nc3ccccc3F)o2)c1 [Compound 4h, 5-(2-Fluoro-5-methylphenyl)-N-(2-fluorophenyl)-1,3,4-oxadiazol-2-amine] | 1.51 ± 0.462 | – | 12.43 | – | – | potent inhibition | weak inhibition | – | 29.36 ^c % | – | 21.87 ^c % |
| Fc1ccccc1Nc1nnc(Cc2ccccc2C(F)(F)F)o1 [Compound 4c, N-(2-Fluorophenyl)-5-(2-(trifluoromethyl)benzyl)-1,3,4-oxadiazol-2-amine] | – | – | 14.76 | 1.9 ± 0.25 | strong inhibition | – | potent inhibition | – | – | – | – |
| Fc1cc(F)cc(Cc2nnc(Nc3ccc(F)cc3F)o2)c1 [Compound 4g, N-(2,4-Difluorophenyl)-5-(3,5-difluorobenzyl)-1,3,4-oxadiazol-2-amine] | 1.11 ± 0.08 | 2.02 ± 1.26 | 15.23 | 1.21 ± 0.04 | strong inhibition | – | potent inhibition | – | – | – | – |
| CC(C)c1ccc(Nc2nnc(-c3ccc(C(F)(F)F)cc3)o2)cc1 [Compound 4m, N-(4-Isopropylphenyl)-5-(4-(trifluoromethyl)phenyl)-1,3,4-oxadiazol-2-amine] | – | – | 15.78 | 0.11 ± 0.001 | strong inhibition | – | potent inhibition | – | – | – | – |
| Fc1cc(F)cc(Cc2nnc(Nc3ccccc3F)o2)c1 [Compound 4f, 5-(3,5-Difluorobenzyl)-N-(2-fluorophenyl)-1,3,4-oxadiazol-2-amine] | 2.03 ± 0.434 | – | 22.61 | – | – | potent inhibition | weak inhibition | – | 39.46 ^c % | – | 34.82 ^c % |
